Measured values as given in US20080261891A1, “COMPOSITIONS AND METHODS FOR USING SYRINGOPEPTIN 25A AND RHAMNOLIPIDS” (Utah State University, priority 2007, published 2008).
Entries after “also recorded” stand apart in the source; their conditions may differ. Where a SMILES comes first, the peptide text is derived from it. Bridges are numbered along the chain shown (N, C = ends). [ ]: non-standard residue; d: D form. The star is where a group is joined. ξ: configuration not given here. Decanoyl(3ξ-OH) = CCCCCCCC(O)CC(=O)*; Dab = NCC[CH](N)C(=O)O; Dhb = C/C=C(\N)C(=O)O

Columns and labels:
Type in all cases: cell-based
Aeromonas caviae = assay: Inhibition rate (IR), propidium iodide uptake
Method: (§1) The antimicrobial action for each compound was initially determined by the rate of uptake of propidium iodide (Fluoropure grade, Molecular Probes, Inc., Eugene, Oreg.) as previously described (Haughland, R. P., 2002, Handbook of fluorescent probes and research chemicals, 9th ed. Molecular Probes, Inc., Eugene, Oreg.). Briefly, all cultures were grown overnight in their respective optimal growth medium and temperature from freezer vials (Table 1). Each culture was sub-cultured twice, harvested in mid-log phase, washed with saline, and adjusted to an appropriate concentration by measuring the optical density at 600 nm. PI, with an excitation wavelength of 535 and an emission wavelength of 617, was added to the culture suspension at a final concentration of 10 μM. Each organism was treated with 50 μg/mL SP 25A and 60 μg/mL of the RL mixture in a final volume of 2.2 mL. The increase in fluorescence was measured with a Shimadzu RF 1501 spectrophotofluorometer at 15 s intervals for a maximum period of 120 min. Saline was added in place of SP 25A or RLs as a negative control. All inhibition experiments were done in replicate.
(§2) The rate of antimicrobial action was expressed as the inhibition rate (“IR”). Curve fitting was done using OriginPro version 7.0 (Natick, Mass.). IR=((Log RFU/(Time))−C)/Time (when d Log RFU/dT>0). Where RFU=relative fluorescent units; and C=Y intercept.

Bacillus cereus = assay: Inhibition rate (IR), propidium iodide uptake
Method: as §1, §2

Bacillus megaterium = assay: Inhibition rate (IR), propidium iodide uptake
Method: as §1, §2

Bacillus subtilis = assay: Inhibition rate (IR), propidium iodide uptake
Method: as §1, §2

Brevibacterium linens = assay: Inhibition rate (IR), propidium iodide uptake
Method: as §1, §2

Citrobacter fruendii = assay: Inhibition rate (IR), propidium iodide uptake
Method: as §1, §2

Clostridium sporogenes = assay: Inhibition rate (IR), propidium iodide uptake
Method: as §1, §2

Enterobacter aerogenes = assay: Inhibition rate (IR), propidium iodide uptake
Method: as §1, §2

Enterococcus faecalis = assay: Inhibition rate (IR), propidium iodide uptake
Method: as §1, §2

Erwinia herbicola = assay: Inhibition rate (IR), propidium iodide uptake
Method: as §1, §2

[1] = tested on: Eschereschia coli H7:0157; assay: Inhibition rate (IR), propidium iodide uptake
Method: as §1, §2

Eschereschia coli K12 = assay: Inhibition rate (IR), propidium iodide uptake
Method: as §1, §2

Flavobacterium devorans = assay: Inhibition rate (IR), propidium iodide uptake
Method: as §1, §2

[2] = tested on: Klebsiella pneumoniae subsp. Pneumoniae; assay: Inhibition rate (IR), propidium iodide uptake
Method: as §1, §2

[3] = tested on: Lactobacillus acidophilus; assay: Inhibition rate (IR), propidium iodide uptake
Method: as §1, §2

Lactobacillus plantarum = assay: Inhibition rate (IR), propidium iodide uptake
Method: as §1, §2

[4] = tested on: Lactococcus lactis subsp. Lactis; assay: Inhibition rate (IR), propidium iodide uptake
Method: as §1, §2

Listeria innocua = assay: Inhibition rate (IR), propidium iodide uptake
Method: as §1, §2

Listeria monocytogenes = assay: Inhibition rate (IR), propidium iodide uptake
Method: as §1, §2

Micrococcus luteus = assay: Inhibition rate (IR), propidium iodide uptake
Method: as §1, §2

Salmonella enteridis = assay: Inhibition rate (IR), propidium iodide uptake
Method: as §1, §2

Salmonella typhimurium = assay: Inhibition rate (IR), propidium iodide uptake
Method: as §1, §2

[5] = tested on: Staphylococcus aureus subsp. aureus; assay: Inhibition rate (IR), propidium iodide uptake
Method: as §1, §2

[6] = tested on: Streptococcus agalacticae; assay: Inhibition rate (IR), propidium iodide uptake
Method: as §1, §2

Streptococcus mutans = assay: Inhibition rate (IR), propidium iodide uptake
Method: as §1, §2

Streptococcus suis = assay: Inhibition rate (IR), propidium iodide uptake
Method: as §1, §2

[7] = tested on: Listeria monocytogenes EGDe; assay: Cell growth (cell density, OD600) during treatment over 120 min
Method: FIG. 6B includes a graph that illustrates the amount of cell growth in response to being treated with SP 25A, RLs and saline (control) over a period of 120 min. […] The lack of positive correlation between membrane permeabilization (FIG. 6A) and inhibition of cell growth (FIG. 6B) of SP 25A inferred that the pore forming model alone was not be responsible for all of the antimicrobial properties of SP 25A.
Listeria monocytogenes EGDe was thawed and subcultured twice at 37° C. in brain heart infusion broth (BHI) (DIFCO, Franklin Lanes, N.J.). An overnight culture was diluted 10 fold in sterile medium and grown for 4 h to an OD600 of 1.7, which corresponded to ˜10^9 cfu/mL. The cell preparation was exposed to either 3 μg/mL SP 25A or 6 μg/mL RLs. Treatment with both RLs and SP 25A caused membrane permeabilization (FIG. 6A), but each reduced cell growth (FIG. 6B) of L. monocytogenes by different amounts. […]
Total RNA was extracted from a 1.8 mL culture immediately before treating the cells with SP 25A and RLs (T0), after 30 min (T30), and at 120 min (T120) of exposure at 37° C. Simultaneously, the cell density was measured at OD600. Membrane permeabilization was determined by measuring the PI uptake. […] Each well contained five probes for each open reading frame in the entire genome.

Structure (SMILES): C/C=C(\NC(=O)C(C)NC(=O)C(C)NC(=O)C(CC(C)C)NC(=O)C(NC(=O)C(C)NC(=O)C(C)NC(=O)C(NC(=O)C1CCCN1C(=O)/C(=C/C)NC(=O)CC(O)CCCCCCC)C(C)C)C(C)C)C(=O)NC(C(=O)N/C(=C\C)C(=O)NC(C)C(=O)NC(C(=O)NC(C)C(=O)NC(C)C(=O)N/C(=C\C)C(=O)NC1C(=O)NC(CO)C(=O)NC(C)C(=O)NC(C(C)C)C(=O)NC(C)C(=O)NC(CCN)C(=O)NC(CCN)C(=O)NC(Cc2ccc(O)cc2)C(=O)OC1C)C(C)C)C(C)C (centres unmarked) [SP 25A, syringopeptin 25A] ({Decanoyl(3ξ-OH)}-[Dhb]PVAAVLAA[Dhb]V[Dhb]AVAA[Dhb]TSAVA[Dab][Dab]Y; ester 18-C; configuration not given here)
- IR SP 25A (50 μg/mL) (Aeromonas caviae): 0.000
- IR SP 25A (50 μg/mL) (Bacillus cereus): 0.004
- IR SP 25A (50 μg/mL) (Bacillus megaterium): 0.005
- IR SP 25A (50 μg/mL) (Bacillus subtilis): 0.006
- IR SP 25A (50 μg/mL) (Brevibacterium linens): 0.009
- IR SP 25A (50 μg/mL) (Citrobacter fruendii): 0.000
- IR SP 25A (50 μg/mL) (Clostridium sporogenes): 0.008
- IR SP 25A (50 μg/mL) (Enterobacter aerogenes): 0.000
- IR SP 25A (50 μg/mL) (Enterococcus faecalis): 0.001
- IR SP 25A (50 μg/mL) (Erwinia herbicola): 0.000
- IR SP 25A (50 μg/mL) [1]: 0.000
- IR SP 25A (50 μg/mL) (Eschereschia coli K12): 0.000
- IR SP 25A (50 μg/mL) (Flavobacterium devorans): 0.002
- IR SP 25A (50 μg/mL) [2]: 0.000
- IR SP 25A (50 μg/mL) [3]: 0.003
- IR SP 25A (50 μg/mL) (Lactobacillus plantarum): 0.003
- IR SP 25A (50 μg/mL) [4]: 0.008
- IR SP 25A (50 μg/mL) (Listeria innocua): 0.005
- inhibition rate relative to the inhibition rate for RLs (Listeria monocytogenes; L. monocytogenes, each compound tested by itself): approximately one-sixth
- IR SP 25A (50 μg/mL) (Listeria monocytogenes; Listeria monocytogenes, 50 μg/mL): 0.005
- IR SP 25A (50 μg/mL) (Micrococcus luteus): 0.006
- IR SP 25A (50 μg/mL) (Salmonella enteridis): 0.000
- IR SP 25A (50 μg/mL) (Salmonella typhimurium): 0.000
- IR SP 25A (50 μg/mL) [5]: 0.003
- IR SP 25A (50 μg/mL) [6]: 0.004
- IR SP 25A (50 μg/mL) (Streptococcus mutans): 0.003
- IR SP 25A (50 μg/mL) (Streptococcus suis): 0.006
- growth of culture (cell density) ([7]; 3 μg/mL SP 25A, during 120 min, control culture grew by 15.3%): did not grow
- inhibition of cell growth ([7]; in comparison to the saline control, 120 min): completely inhibited cell growth; also recorded: complete inhibition of cell growth
